The values below come from patent US6307014A (priority 1998, dated 2001).

The assay deals with cholinergic synapse of the buccal ganglion. In kind it is cell-based, Aplysia californica.

As for “Gla Cys Cys Gla Asp Gly BrW Cys Cys Thr Ala Ala OHP [P11.1]”, the “reversibility of the IPSC decrease” value is recorded as “reversed by washing”.
